# Data published in US20240215910A1, “A METHOD FOR […] PRO-OR ANTI […] TEST COMPOUNDS” (GW Research Limited, priority 2020, published 2024).
# Key:
# [1] = tested on: tonic hind limb extensor convulsion from a single electroshock; mouse model of generalised seizure; assay: standard maximal electroshock seizure threshold (MEST) test (n=12/group, 5 mA intervals); conditions: Example 4, 30 min post dose; for CC50 +/− SEM: vehicle CC50 24.3
# Method: The efficacy of Compound 3 was tested in a mouse model of generalised seizure, the maximal electroshock seizure threshold (MEST) test.
# All animals were weighed at the beginning of the study and randomly assigned to treatment groups (n=12/group) based on a mean distribution of body weight across groups.
# The first animal within a treatment group was given a shock at the expected or
# estimated CC50 current. For subsequent animals, the current was lowered or raised depending on the convulsions outcome from the preceding animal in 5 mA intervals.
# Data generated from each treatment group were used to calculate the CC50±SEM values for the treatment group.
# Test compound effects were also calculated as percentage change in CC50 from the vehicle control group.
# Significant difference between drug-treated animals and controls were assessed according to Litchfield and Wilcoxon (1949).
# [2] = tested on: tonic hind limb extensor convulsion from a single electroshock; assay: mini-MEST: maximal electroshock seizure threshold test using minimal sample sizes (n=6/group, log-scale current steps); conditions: for % change from vehicle / CC50 ± SEM: N=6
# Excerpt: (§1) All animals were weighed at the beginning of the study and assigned to treatment groups (n=6/group) based on a mean distribution of body weight across groups.
# (§2) The first animal within a treatment group was given a shock at the expected or estimated CC50 current. For subsequent animals, the current was lowered or raised depending on the convulsion outcome from the preceding animal in log scale intervals. Data generated from each treatment group were used to calculate the CC50±SEM values for the treatment group (see Table 5 for details).
# as §1
# as §2, with “Table 10” for “Table 5”
# as §1
# as §2, with “Table 15” for “Table 5”
smiles,measurement,setting,value
C=C(C)[C@@H]1CCC(C)=C[C@H]1c1c(O)cc(-c2cnn(C)c2)cc1O [Compound 3],% change from vehicle,"[1]; 2 mg/kg i.p., N=12",27%
same,CC50 +/− SEM,"[1]; 2 mg/kg i.p., N=12",30.8 ± 1.0 mA
same,% change from vehicle,"[1]; 20 mg/kg i.p., N=12",116%
same,CC50 +/− SEM,"[1]; 20 mg/kg i.p., N=12",52.5 ± 1.3 mA
same,% change from vehicle,"[1]; 200 mg/kg i.p., N=12",712%
same,CC50 +/− SEM,"[1]; 200 mg/kg i.p., N=12",197.5 ± 20.4 mA
same,effect on MEST across doses (in words),"[1]; 2, 20 and 200 mg/kg i.p.",dose-related increase in MEST
same,% change from vehicle,"[2]; Example 3, 200 mg/kg i.p., 120 min post dose",>636%
same,CC50 ± SEM,"[2]; Example 3, 200 mg/kg i.p., 120 min post dose, no ""+"" seen, vehicle CC50 23.5",>173 mA
same,seizure threshold as compared to vehicle (in words),"[2]; Example 3, 200 mg/kg i.p., 120 mins before testing",clear increase in seizure threshold
C=C(C)[C@@H]1CCC(C)=C[C@H]1c1c(O)cc(-c2cn(C)nn2)cc1O [Compound 2],% change from vehicle,"[2]; Example 2, 5 mg/kg i.p., 15 min post dose",26%
same,CC50 ± SEM,"[2]; Example 2, 5 mg/kg i.p., 15 min post dose, vehicle CC50 22.5",28.3 +/− 1.1 mA
same,% change from vehicle,"[2]; Example 2, 50 mg/kg i.p., 30 min post dose",213%
same,CC50 ± SEM,"[2]; Example 2, 50 mg/kg i.p., 30 min post dose, vehicle CC50 22.5",70.5 +/− 5.8 mA
C=C(C)[C@@H]1CCC(C)=C[C@H]1c1c(O)cc(-c2cnn(CC(C)(C)C)c2)cc1O [Compound 1],% change from vehicle,"[2]; Example 1, 50 mg/kg i.p., 30 min post dose",388%
same,CC50 ± SEM,"[2]; Example 1, 50 mg/kg i.p., 30 min post dose, vehicle CC50 24.5",119.5 mA
"CN1C(=O)CN=C(c2ccccc2)c2cc(Cl)ccc21 [Diazepam, diazepam, reference compound]",% change from vehicle,"[1]; 2.5 mg/kg i.p., N=11",223%
same,% change from vehicle,"[2]; Example 1, 2.5 mg/kg i.p., 30 min post dose",206%
same,% change from vehicle,"[2]; Example 2, 2.5 mg/kg i.p., 30 min post dose",296%
same,% change from vehicle,"[2]; Example 3, 2.5 mg/kg i.p., 30 min post dose",98%
